Like-named read-outs stand apart in the source and are kept apart here. Ends that are not written are not given here.
Legend:
CD4+ T cells = assay type: cell-based, human
[1] = target: DQ0602 (HLA DQB1*06:02/DQA1*01:02 heterodimer) (Homo sapiens, UniProt P01909+P01920, A157G/A45G/C70R/E118A/E183D/E77G/F83G/G63E/H151Q/H199R/H252R/H253Q/I129T/I235V/I88M/INS77G/K197Q/L117V/L119F/L178F/L71W/L74F/L85Q/L91A/L98M/N214S/P87R/Q116E/Q76K/R102G/R240Q/R75S/R78G/S102Y/S185I/S41F/S97I/T121G/T122I/T172A/T86R/V229M/V68A/V73E/Y34C/Y41F/Y58L); assay type: binding; details: in words; Dataset S1
[2] = 13 post-Pandemrix cases versus 10 post-Pandemrix controls

Row | Substance | Tetramer reactivity (frequency of specific CD4+ T cells) in primary screening (CD4+ T cells) | DQ0602 binding affinity of amidated versus nonamidated HCRT peptide [1] | Tetramer-positive CD4+ T cells in T1N cases versus DQ0602 controls (CD4+ T cells; [2]) | Tetramer-positive CD4+ T cells in T1N cases versus DQ0602 controls (CD4+ T cells; all cases versus controls, […]) | Tetramer-positive CD4+ T cells in T1N cases versus DQ0602 controls (CD4+ T cells; 7 recent onset cases versus 21 controls)
1 | NP17–31: nucleoprotein epitope, PR8 specific (GERQNATEIRASVGK) | highest frequencies |  |  |  | 
2 | NP261–275: nucleoprotein epitope shared between A/California/07/2009 and PR8 (RSALILRGSVAHKSC; UniProt P03466 261-275, looked up, fragment) | highest frequencies |  |  |  | 
3 | HCRT86–97-NH2: C-terminal amidated HCRT86–97, as in secreted, mature hypocretin-2 (ASGNHAAGILTM-NH2; UniProt O43612 86-97, looked up, fragment) |  | higher affinity | significantly higher reactivity | marginally higher values | 
4 | HCRT54–66-NH2: C-terminal amidated HCRT54–66, as in secreted, mature hypocretin-1 (HGAGNHAAGILTL-NH2) |  | higher affinity | marginally higher values | significantly higher percentage | higher reactivity

From PMC6310865 (Proceedings of the National Academy of Sciences of the …, 2018)
